Experimental findings from PubChem BioAssay (NCI) are described below.

Among the test systems are M14 melanoma; NCI-H226 lung; HOP-92 NSCLC; SNB-75 CNS; ACHN renal; NCI/ADR-RES ovarian; RPMI-8226 leukemia; IGROV1 ovarian; UACC-62 melanoma; SK-MEL-5 melanoma.
Holding throughout (assay): NCI tumour cell line growth inhibition, 48 h

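1) Cells in 96-well plates. 2) Compound, 48 h, 5 concentrations. 3) Linear interpolation between surrounding doses. 4) Unreached endpoint = highest concentration. GI50 = concentration required for 50% inhibition of growth. TGI: total growth inhibition.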

`O=c1c2cc(S(=O)(=O)O)ccc2nc(COc2ccc(Oc3ccc(Cl)cc3Cl)cc2)n1-c1ccc(Oc2ccc(Cl)cc2)cc1Cl`: the TGI with M14 melanoma worked out at 39.9 µM; in the assay on NCI-H226 lung it was 48.9 µM; in the assay on HOP-92 NSCLC it was 31.4 µM; in the assay on SNB-75 CNS, 50.1 µM; with ACHN renal, 56.6 µM; with NCI/ADR-RES ovarian, 39.5 µM. Moreover, the TGI in the assay with RPMI-8226 leukemia was found to be 65.4 µM; in the assay on IGROV1 ovarian, 66.2 µM; in the assay with UACC-62 melanoma, 34.7 µM; in the assay with SK-MEL-5 melanoma it was 34.6 µM.
As for `COC(=O)C1=C(OC(=O)/C(=C/c2ccc(Cl)cc2)c2ccc(Cl)cc2)C(C(=O)OC)[C@]2(O)[C@@H](C(=O)OC)[C@H]1C[C@@H](c1ccccc1)[C@@H]2C(=O)OC` (some centres undefined), the TGI in the assay on M14 melanoma, in the assay on NCI-H226 lung, with SNB-75 CNS, in the assay on ACHN renal, with NCI/ADR-RES ovarian and in the assay with IGROV1 ovarian was over 100 µM in each case. Also, the TGI in the assay with UACC-62 melanoma and in the assay on SK-MEL-5 melanoma was over 100 µM in each case.
On to `Cc1c(-c2ccccc2)[nH]c2cc(Cl)ccc2c1=O`, for which the TGI was over 100 µM in the assay with M14 melanoma; 68 µM with NCI-H226 lung; over 100 µM with ACHN renal; over 100 µM in the assay on RPMI-8226 leukemia; over 100 µM in the assay on UACC-62 melanoma; over 100 µM with SK-MEL-5 melanoma.
For `C=C(C)C1Cc2c(c3ccccc3n(C)c2=O)O1` (centres undefined), the TGI in the assay with M14 melanoma, in the assay on NCI-H226 lung, in the assay on HOP-92 NSCLC, with SNB-75 CNS, with ACHN renal and with RPMI-8226 leukemia was over 100 µM each time. The TGI with IGROV1 ovarian, with UACC-62 melanoma and in the assay with SK-MEL-5 melanoma was over 100 µM in each case.
Regarding `CCOC(=O)c1c(C)n(-c2ccc(Cl)cc2)c2c1cc(O)c1[nH]c3c(c12)CCCC3`, the TGI with M14 melanoma, with NCI-H226 lung, in the assay on HOP-92 NSCLC, with SNB-75 CNS, in the assay with ACHN renal and in the assay with NCI/ADR-RES ovarian was over 100 µM each time. Moreover, the TGI was over 100 µM in the assay with RPMI-8226 leukemia, over 100 µM in the assay with IGROV1 ovarian, over 100 µM in the assay with UACC-62 melanoma and 49.4 µM with SK-MEL-5 melanoma.
On to `CC1=C(O)C2=C(C(=O)C1=O)[C@@H](C)CC[C@@H]2[C@@H](C)C/C=C/C(C)(C)O`, for which the TGI was over 100 µM in the assay with M14 melanoma; over 100 µM in the assay with NCI-H226 lung; 98 µM with ACHN renal; over 100 µM with NCI/ADR-RES ovarian; 56.3 µM in the assay with RPMI-8226 leukemia; over 100 µM with IGROV1 ovarian. Also, the TGI in the assay on UACC-62 melanoma and in the assay with SK-MEL-5 melanoma was over 100 µM throughout.
`COC(=O)c1c(C)n([O-])c2cc(Cl)c(Cl)cc2[n+]1=O`: the TGI in the assay on M14 melanoma was determined as 76.6 µM; with ACHN renal, 62.8 µM; in the assay on NCI/ADR-RES ovarian, 49.5 µM; with RPMI-8226 leukemia, 19.3 µM; in the assay with IGROV1 ovarian, 19.9 µM; with UACC-62 melanoma, 40.3 µM. The TGI with SK-MEL-5 melanoma stood at 23.4 µM.
As for `c1ccc(-c2nc(N3CCNCC3)c3oc(-c4ccccc4)nc3n2)cc1`, the GI50 with NCI-H226 lung is 2.11 µM; with HOP-92 NSCLC, 1.46 µM; with SNB-75 CNS, 1.27 µM; in the assay on ACHN renal, 1.64 µM; in the assay on RPMI-8226 leukemia it was 2.03 µM; in the assay with IGROV1 ovarian, 1.69 µM. The GI50 with UACC-62 melanoma is 1.72 µM; in the assay with SK-MEL-5 melanoma, 1.77 µM. In addition, the TGI with NCI-H226 lung came to 5.05 µM; in the assay with HOP-92 NSCLC it was 3.06 µM; in the assay on SNB-75 CNS, 2.59 µM; in the assay on ACHN renal, 3 µM; with RPMI-8226 leukemia it was 5.16 µM; in the assay with IGROV1 ovarian, 3.22 µM. In addition, the TGI in the assay on UACC-62 melanoma stood at 3.11 µM; with SK-MEL-5 melanoma it was 3.2 µM.
As for `Nc1[nH]c(=O)nc2c1cnn2C1CCCCO1` (centres undefined), the TGI in the assay with M14 melanoma, in the assay with NCI-H226 lung, in the assay with HOP-92 NSCLC, in the assay with SNB-75 CNS, in the assay on ACHN renal and with RPMI-8226 leukemia was over 100 µM in each case. Also, the TGI in the assay with IGROV1 ovarian and in the assay on SK-MEL-5 melanoma was over 100 µM throughout.
Turning to `CC(C)C(C(=O)O)N1C(=O)c2ccccc2C1=O` (centres undefined), the TGI in the assay on M14 melanoma, in the assay on NCI-H226 lung, with HOP-92 NSCLC, with SNB-75 CNS, in the assay with ACHN renal and in the assay on NCI/ADR-RES ovarian was over 100 µM in each case. The TGI in the assay on RPMI-8226 leukemia, in the assay on IGROV1 ovarian, in the assay on UACC-62 melanoma and in the assay on SK-MEL-5 melanoma was over 100 µM throughout.
Turning to `Cc1cc(C)nc(NS(=O)(=O)c2ccc(NC(=O)c3cccc4c(Nc5ccc(S(=O)(=O)Nc6cc(C)on6)cc5)c5ccccc5nc34)cc2)n1`, the TGI is 47.5 µM with M14 melanoma, 48.9 µM in the assay on SNB-75 CNS, over 100 µM with ACHN renal and 40.9 µM in the assay with UACC-62 melanoma.
Take `CCCC1CCC(=C2C(=O)CCC2=O)O1` (centres undefined): the TGI in the assay on M14 melanoma, in the assay on NCI-H226 lung, with HOP-92 NSCLC, with SNB-75 CNS, with ACHN renal and in the assay on NCI/ADR-RES ovarian was over 100 µM in each case. Also, the TGI in the assay on RPMI-8226 leukemia, in the assay with IGROV1 ovarian and in the assay with UACC-62 melanoma was over 100 µM each time.
As for `COc1cc(C(C)O)c[n+](Cc2ccccc2)c1` (centres undefined), the TGI in the assay on M14 melanoma, in the assay with NCI-H226 lung, in the assay on HOP-92 NSCLC, in the assay on SNB-75 CNS, in the assay with ACHN renal and in the assay with RPMI-8226 leukemia was over 100 µM each time. Also, the TGI in the assay with IGROV1 ovarian, with UACC-62 melanoma and in the assay with SK-MEL-5 melanoma was over 100 µM in each case.
